In patent US20250345446A1 (Draupnir Bio ApS, priority 2022, published 2025):
Where two headings read alike, the source gives them in different places. Blank lines part the entries; values can stand above or below the molecule they belong to. *: point of attachment. Biotin = O=C1N[C@H]2[C@H](CS[C@H]2CCCCC(=O)*)N1

How the values were obtained:
[1] = test system: HEK293 cells expressing full length sortilin receptor; assay: Cellular uptake of AlexaFluor488-anti-DNP antibody; type: cell-based; conditions: for AUC score, target internalization: Table 7, AlexaFluor488-anti-DNP antibody (100 nM), 3 h, DNP warhead compounds; for cell associated FI signal, response to concentration series (in words): 3 h incubation, 1.9 nM to 2 μM, AlexaFluor488-anti-DNP antibody 100 nM
Description: In this example, the small molecule degraders consist of a sortilin binder linked to warhead DNP to target anti-DNP antibodies (BF001 to BF016)
Cellular uptake of AlexaFluor488-anti-DNP antibody (Thermo Fisher) was investigated in HEK293 cells expressing full length sortilin receptor in a methodology analogous to example 3.

[2] = target: T1, soluble ectodomain of sortilin-6his (Homo sapiens, UniProt Q99523, V650M); assay: MST binding to soluble ectodomain of sortilin-6his
T1 construct: the soluble ectodomain of sortilin-6his is measured by microscale thermophoresis (MST)
T1 sequence (Q99523 with tags, fused parts or gaps V650M): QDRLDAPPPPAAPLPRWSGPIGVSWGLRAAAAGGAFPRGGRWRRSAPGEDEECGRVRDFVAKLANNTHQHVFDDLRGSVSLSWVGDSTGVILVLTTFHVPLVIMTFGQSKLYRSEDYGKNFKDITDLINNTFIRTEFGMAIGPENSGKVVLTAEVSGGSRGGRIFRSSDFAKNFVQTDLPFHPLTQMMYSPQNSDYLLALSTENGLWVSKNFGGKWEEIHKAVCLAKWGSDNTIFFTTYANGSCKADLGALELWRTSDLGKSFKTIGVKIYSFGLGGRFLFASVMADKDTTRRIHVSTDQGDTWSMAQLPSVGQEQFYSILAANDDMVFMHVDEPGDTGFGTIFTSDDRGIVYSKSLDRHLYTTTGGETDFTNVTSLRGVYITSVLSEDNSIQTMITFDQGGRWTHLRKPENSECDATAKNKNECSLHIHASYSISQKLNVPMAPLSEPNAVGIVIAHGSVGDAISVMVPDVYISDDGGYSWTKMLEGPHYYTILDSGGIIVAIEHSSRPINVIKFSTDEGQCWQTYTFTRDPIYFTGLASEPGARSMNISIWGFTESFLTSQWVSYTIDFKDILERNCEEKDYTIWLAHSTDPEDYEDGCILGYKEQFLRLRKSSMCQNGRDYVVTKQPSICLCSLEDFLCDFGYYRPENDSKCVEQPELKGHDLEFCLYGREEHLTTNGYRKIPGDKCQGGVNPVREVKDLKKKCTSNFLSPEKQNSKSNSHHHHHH

[3] = test system: HEK293 cells expressing full length sortilin receptor; assay: Cellular uptake of NA650 in HEK293/sortilin cells; type: cell-based; conditions: for AUC score, target internalization: Table 6, NA650 (100 nM), 3 h, biotin warhead compounds
Protocol: Cellular uptake of NA650 was investigated in HEK293 cells expressing full length sortilin receptor (Petersen et. al.). Cells were seeded in poly-L-lysine coated 96-well plates (Perkin Elmer) (40K/well) in 50 μL culture medium (DMEM (Lonza)+10% FBS (SigmaAldrich)+1% penicillin-streptomycin (SigmaAldrich)+1% GlutaMAX (Gibco)+100 μg/mL Zeocin (Invitrogen)) and incubated overnight in cell incubator (37° C., humidified, 5% CO2).
Culture medium was replaced with assay medium (DMEM (Lonza)+10% fetal bovine serum (SigmaAldrich)+1% penicillin-streptomycin (SigmaAldrich)+1% GlutaMAX (Gibco)) containing NA650 (Invitrogen) (100 nM) (Thermo Fischer) and peptidic bifunctional compounds (9.8 nM to 10 μM). Cells were incubated for 3 h in cell incubator before they were washed in dPBS (Bionordika). The DyLight650 signal in the cell layer was detected using a fluorescence plate reader (BMG Labtech Clariostar).
Cellular uptake of NA650 was investigated in HEK293 cells expressing full length sortilin receptor using a methodology analogous to example 3.

Sortilin-6His [4] = target: T2, Sortilin-6His (Homo sapiens (Human), UniProt Q99523 78-755); assay: MST on labelled sortilin-6his ectodomain; KD score: ++ <100 nM, + 100-2000 nM
T2 construct: In MST it was labelled non-covalently with RED-tris-NTA; also called soluble ectodomain of sortilin-6his; fluorescent sortilin-6his
T2 sequence (Q99523 78-755 V650M limits assumed): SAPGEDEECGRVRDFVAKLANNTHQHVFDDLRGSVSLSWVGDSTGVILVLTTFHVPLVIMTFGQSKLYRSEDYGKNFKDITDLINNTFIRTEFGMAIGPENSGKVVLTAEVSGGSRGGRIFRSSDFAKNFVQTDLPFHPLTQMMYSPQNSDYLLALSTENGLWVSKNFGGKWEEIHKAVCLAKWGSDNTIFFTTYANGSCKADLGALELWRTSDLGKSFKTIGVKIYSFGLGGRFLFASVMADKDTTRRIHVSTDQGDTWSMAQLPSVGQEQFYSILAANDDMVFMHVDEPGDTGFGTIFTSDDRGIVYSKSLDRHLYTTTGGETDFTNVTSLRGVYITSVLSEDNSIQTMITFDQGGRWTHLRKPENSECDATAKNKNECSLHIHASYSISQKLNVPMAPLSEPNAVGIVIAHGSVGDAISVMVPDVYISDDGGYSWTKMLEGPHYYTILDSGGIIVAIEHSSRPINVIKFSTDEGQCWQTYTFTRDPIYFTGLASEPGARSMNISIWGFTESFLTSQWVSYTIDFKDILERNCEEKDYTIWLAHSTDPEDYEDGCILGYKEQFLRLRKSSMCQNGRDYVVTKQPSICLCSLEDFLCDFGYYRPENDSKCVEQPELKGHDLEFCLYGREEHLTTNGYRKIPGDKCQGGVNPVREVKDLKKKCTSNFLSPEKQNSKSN

Sortilin-6His [5] = target: T2, Sortilin-6His; assay: TR-FRET (HTRF) ternary complex streptavidin-d2 / biotin-peptide / sortilin-6His; AUC score: + <5000, ++ >5000
[6] = Table 4, small molecule bifunctional compounds, MST, read-out: KD score, binding to sortilin (Kd)

Molecule: CC(C)(C)CC[C@H](NC(=O)c1ccc(Oc2cccc(OCCOCCOCCOCCOCCOCCNc3ccc([N+](=O)[O-])cc3[N+](=O)[O-])c2)nc1)C(=O)O [BF004, (2S)-2-[[6-[3-[2-[2-[2-[2-[2-[2-(2,4-dinitroanilino)ethoxy]ethoxy]ethoxy]ethoxy]ethoxy]ethoxy]phenoxy]pyridine-3-carbonyl]amino]-5,5-dimethyl-hexanoic acid]
AUC score, target internalization [1]: + (AUC < 10.000)
Kd [2]: 0.001 to 0.01 µM

Molecule: CC(C)(C)CC[C@H](NC(=O)c1ccc(Oc2cccc(C(=O)NCCOCCOCCOCCOCCOCCOCCOCCNc3ccc([N+](=O)[O-])cc3[N+](=O)[O-])c2)nc1)C(=O)O [BF006, (2S)-2-[[6-[3-[2-[2-[2-[2-[2-[2-[2-[2-(2,4-dinitroanilino)ethoxy]ethoxy]ethoxy]ethoxy]ethoxy]ethoxy]ethoxy]ethylcarbamoyl]phenoxy]pyridine-3-carbonyl]amino]-5,5-dimethyl-hexanoic acid]
cell associated FI signal, response to concentration series (in words) [1]: bell-shaped response
AUC score, target internalization [1]: + (AUC < 10.000)
Kd [2]: 0.001 to 0.01 µM

Molecule: CC(C)(C)CC[C@H](NC(=O)c1ccc(Oc2cccc(C(=O)NCCOCCOCCOCCOCCOCCOCCNc3ccc([N+](=O)[O-])cc3[N+](=O)[O-])c2)nc1)C(=O)O [BF008, (2S)-2-[[6-[3-[2-[2-[2-[2-[2-[2-[2-(2,4-dinitroanilino)ethoxy]ethoxy]ethoxy]ethoxy]ethoxy]ethoxy]ethylcarbamoyl]phenoxy]pyridine-3-carbonyl]amino]-5,5-dimethyl-hexanoic acid]
AUC score, target internalization [1]: + (AUC < 10.000)
Kd [2]: 0.001 to 0.01 µM

Molecule: CC(C)(C)CC[C@H](NC(=O)c1ccc(Oc2cccc3c(C(=O)NCCCNC(=O)CCOCCOCCOCCOCCNc4ccc([N+](=O)[O-])cc4[N+](=O)[O-])cccc23)nc1)C(=O)O [BF010, (2S)-2-[[6-[[5-[3-[3-[2-[2-[2-[2-(2,4-dinitroanilino)ethoxy]ethoxy]ethoxy]ethoxy]propanoylamino]propylcarbamoyl]-1-naphthyl]oxy]pyridine-3-carbonyl]amino]-5,5-dimethyl-hexanoic acid]
AUC score, target internalization [1]: ++ (AUC > 10.000)
Kd [2]: 0.001 to 0.01 µM

Molecule: CC(C)(C)CC[C@H](NC(=O)c1ccc(Oc2cccc(C(=O)NCCOCCOCCOCCOCCOCCNc3ccc([N+](=O)[O-])cc3[N+](=O)[O-])c2)nc1)C(=O)O [BF011, (2S)-2-[[6-[3-[2-[2-[2-[2-[2-[2-(2,4-dinitroanilino)ethoxy]ethoxy]ethoxy]ethoxy]ethoxy]ethylcarbamoyl]phenoxy]pyridine-3-carbonyl]amino]-5,5-dimethyl-hexanoic acid]
cell associated FI signal, response to concentration series (in words) [1]: bell-shaped response
AUC score, target internalization [1]: + (AUC < 10.000)

Molecule: CC(C)(C)CC[C@H](NC(=O)c1ccc(Oc2cccc(OCCOCCOCCOCCOCCOCCOCCNc3ccc([N+](=O)[O-])cc3[N+](=O)[O-])c2)nc1)C(=O)O [BF014, (2S)-2-[[6-[3-[2-[2-[2-[2-[2-[2-[2-(2,4-dinitroanilino)ethoxy]ethoxy]ethoxy]ethoxy]ethoxy]ethoxy]ethoxy]phenoxy]pyridine-3-carbonyl]amino]-5,5-dimethyl-hexanoic acid]
AUC score, target internalization [1]: ++ (AUC > 10.000)
Kd [2]: 0.01 to 0.25 µM

Kd [2, 6]: 0.001 to 0.01 µM
Molecule: CC(C)(C)CC[C@H](NC(=O)c1ccc(Oc2cccc(C(=O)NCCOCCOCCOCCOCCOCCOCCOCCOCCNC(=O)CCCC[C@@H]3SC[C@@H]4NC(=O)N[C@@H]43)c2)nc1)C(=O)O [BF018, (2S)-2-[[6-[3-[2-[2-[2-[2-[2-[2-[2-[2-[2-[5-[(3aS,4S,6aR)-2-oxo-1,3,3a,4,6,6a-hexahydrothieno[3,4-d]imidazol-4-yl]pentanoylamino]ethoxy]ethoxy]ethoxy]ethoxy]ethoxy]ethoxy]ethoxy]ethoxy]ethylcarbamoyl]phenoxy]pyridine-3-carbonyl]amino]-5,5-dimethyl-hexanoic acid]
AUC score, target internalization [3]: ++ (AUC > 100)

Kd [2, 6]: 0.01 to 0.25 µM
Molecule: CC(C)(C)CC[C@H](NC(=O)c1ccc(Oc2cccc(OCCOCCOCCNC(=O)CCCC[C@@H]3SC[C@@H]4NC(=O)N[C@@H]43)c2)nc1)C(=O)O [BF022, (S)-5,5-dimethyl-2-(6-(3-(2-(2-(2-(5-((3aS,4S,6aR)-2-oxohexahydro-1H-thieno[3,4-d]imidazol-4-yl)pentanamido)ethoxy)ethoxy)ethoxy)phenoxy)nicotinamido) hexanoic acid]
AUC score, target internalization [3]: + (AUC < 100)

Kd [2, 6]: 0.01 to 0.25 µM
Molecule: CC(C)(C)CC[C@H](NC(=O)c1ccc(Oc2cccc3cc(C(=O)NCCCNC(=O)CCCC[C@@H]4SC[C@@H]5NC(=O)N[C@@H]54)ccc23)nc1)C(=O)O [BF024]
AUC score, target internalization [3]: + (AUC < 100)

Kd [2, 6]: 0.01 to 0.25 µM
Molecule: CC(C)(C)CC[C@H](NC(=O)c1ccc(Oc2cccc3c(C(=O)NCCCNC(=O)CCOCCOCCOCCOCCOCCNC(=O)CCCC[C@@H]4SC[C@@H]5NC(=O)N[C@@H]54)cccc23)nc1)C(=O)O [BF028, (2S)-2-[[6-[[5-[3-[3-[2-[2-[2-[2-[2-[5-[(3aS,4S,6aR)-2-oxo-1,3,3a,4,6,6a-hexahydrothieno[3,4-d]imidazol-4-yl]pentanoylamino]ethoxy]ethoxy]ethoxy]ethoxy]ethoxy]propanoylamino]propylcarbamoyl]-1-naphthyl]oxy]pyridine-3-carbonyl]amino]-5,5-dimethyl-hexanoic acid]
AUC score, target internalization [3]: ++ (AUC > 100)

Molecule: O=C(O)CCCC[C@@H]1SC[C@@H]2NC(=O)N[C@@H]21 [biotin, reference compound]
IC50 ([3]; Homo sapiens, HEK293, SEQ ID NO.: 147 (300 nM) and NA650 (100 nM), 3 h incubation, competitor titrated, read-out: IC50 of inhibition of degrader induced internalization of NA650): 0.056 µM

KD (Sortilin-6His [4]): 0.1 to 2 µM
AUC of TR-FRET (HTRF ratio vs compound concentration) for ternary complex formation (Sortilin-6His [5]): > 5000 auc
B1: Biotin-GGSGGGGSGGGGSGGFQLL-OH (peptide)
peptide: Biotin-GGSGGGGSGGGGSGGFQLL-OH
SMILES: CC(C)C[C@H](NC(=O)[C@H](CC(C)C)NC(=O)[C@H](CCC(N)=O)NC(=O)[C@H](Cc1ccccc1)NC(=O)CNC(=O)CNC(=O)[C@H](CO)NC(=O)CNC(=O)CNC(=O)CNC(=O)CNC(=O)[C@H](CO)NC(=O)CNC(=O)CNC(=O)CNC(=O)CNC(=O)[C@H](CO)NC(=O)CNC(=O)CNC(=O)CCCC[C@@H]1SC[C@@H]2NC(=O)N[C@@H]21)C(=O)O

KD (Sortilin-6His [4]): < 0.1 µM
AUC of TR-FRET (HTRF ratio vs compound concentration) for ternary complex formation (Sortilin-6His [5]): < 5000 auc
B2: Biotin-GGSGGGGSGRQLL-OH (peptide)
peptide: Biotin-GGSGGGGSGRQLL-OH
SMILES: CC(C)C[C@H](NC(=O)[C@H](CC(C)C)NC(=O)[C@H](CCC(N)=O)NC(=O)[C@H](CCCNC(=N)N)NC(=O)CNC(=O)[C@H](CO)NC(=O)CNC(=O)CNC(=O)CNC(=O)CNC(=O)[C@H](CO)NC(=O)CNC(=O)CNC(=O)CCCC[C@@H]1SC[C@@H]2NC(=O)N[C@@H]21)C(=O)O

KD (Sortilin-6His [4]): < 0.1 µM
AUC of TR-FRET (HTRF ratio vs compound concentration) for ternary complex formation (Sortilin-6His [5]): < 5000 auc
B3: Biotin-GGSGGGGSGFQLL-OH (peptide)
peptide: Biotin-GGSGGGGSGFQLL-OH
SMILES: CC(C)C[C@H](NC(=O)[C@H](CC(C)C)NC(=O)[C@H](CCC(N)=O)NC(=O)[C@H](Cc1ccccc1)NC(=O)CNC(=O)[C@H](CO)NC(=O)CNC(=O)CNC(=O)CNC(=O)CNC(=O)[C@H](CO)NC(=O)CNC(=O)CNC(=O)CCCC[C@@H]1SC[C@@H]2NC(=O)N[C@@H]21)C(=O)O
